Measured values taken from patent publication US8722649B2, “Alpha-chloro and alpha-bromo phosphonate analogs of lysophosphatidic acid and methods of making and using thereof” (University of Utah Research Foundation, priority 2007, dated 2014).

Key:
Format in all cases: cell-based
PPARγ = biological target: T1, PPARγ (Homo sapiens, UniProt P37231); assay: PPARγ activation assay (PPRE-Acox-Rluc reporter in CV-1 cells); details: 10 μM test analogue, 20 h
T1 construct: expressed in transfected cells; host or cells: CV-1 cells, transient (LipofectAMINE 2000)
T1 sequence (P37231 1-505): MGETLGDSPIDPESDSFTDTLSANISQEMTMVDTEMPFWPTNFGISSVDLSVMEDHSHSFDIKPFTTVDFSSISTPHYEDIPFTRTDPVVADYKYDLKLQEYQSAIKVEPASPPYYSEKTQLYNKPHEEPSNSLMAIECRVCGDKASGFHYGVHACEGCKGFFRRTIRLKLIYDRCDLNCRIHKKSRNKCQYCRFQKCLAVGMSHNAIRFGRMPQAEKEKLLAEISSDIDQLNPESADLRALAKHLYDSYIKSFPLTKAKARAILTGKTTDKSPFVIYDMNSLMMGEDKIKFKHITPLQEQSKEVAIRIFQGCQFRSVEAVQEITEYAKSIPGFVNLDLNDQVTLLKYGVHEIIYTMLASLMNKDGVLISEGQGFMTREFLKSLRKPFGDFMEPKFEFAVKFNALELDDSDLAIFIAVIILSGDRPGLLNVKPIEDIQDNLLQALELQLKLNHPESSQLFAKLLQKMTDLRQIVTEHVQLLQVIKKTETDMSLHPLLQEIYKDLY
Method: PPARγ activation assay. PPARγ activation was performed using CV-1 cells transfected with an acyl-coenzyme A oxidase-luciferase (PPRE-Acox-Rluc) reporter gene construct as previously reported. Briefly, CV-1 cells were plated in 96-well plates at a density of 1×10^4 cells per well in Dulbecco's modified Eagle's medium supplemented with 10% fetal bovine serum. The next day, the cells were transiently transfected with 125 ng of pGL3-PPRE-Acox-Rluc, 62.5 ng of pcDNA3.1 PPARγ, and 12.5 ng of pSV-β-galactosidase (Promega) using LipofectAMINE 2000 (Invitrogen). Twenty-four hours after transfection, cells were treated with OptiMEM (Invitrogen) containing 10 μM Rosiglitazone or 10 μM of the test analogue dissolved in DMSO for 20 h. Luciferase and β-galactosidase activities were measured with Steady-Glo® Luciferase Assay System (Promega) and the Galacto-Light Plus™ system (Applied Biosystems), respectively. Samples were run in quadruplicate and the mean ±standard errors were calculated. Data are representative of at least two independent transfections.

MDA-MB-231 cells [1] = assay: Matrigel transwell invasion assay; details: Homo sapiens, 24 h, read-out: inhibition of MDA-MB-231 invasion through Matrigel
Method: Inhibition of invasion. The invasive behavior of cells was determined in vitro by using 24-well transwell inserts with an 8 μm pore size PET membrane which were coated with Matrigel basement membrane matrix. A suspension of cells (100 μL of 5×10^4) in serum-free medium with or without 10 μM syn-BrP-LPA la or anti-BrP-LPA 1b was added to triplicate inserts, and 600 μL medium supplemented with serum was used as a chemoattractant in the lower chamber. […] Ten fields of cells were counted for each well, and the mean number of cells per field was calculated. Each experiment was performed in triplicate and repeated at least twice.

MDA-MB-231 cells [2] = assay: Scratch wound healing migration assay; details: for MDA-MB-231 cell migration in words: 10 and 40 μM, 24 h
Method: Inhibition of migration. MDA-MB-231 cells were plated in triplicate into six-well plates at a concentration of 3×10^5 cells per well. Approximately 48 hours later, the confluent cells were carefully scratched using sterile pipette tips. Nonadherent cells and cellular debris were removed by washing with PBS. Fresh medium with or without various concentrations of BrP-LPA 1, syn-BrP-LPA 1a, or anti-BrP-LPA 1b (1-100 μM) were added to the wounded monolayers. Cells were observed under the microscope and digitally photographed at different times. Inhibition of migration was assessed when the wound in the control was closed and quantified by using ImageJ.

Row | Compound | PPARγ (PPRE luciferase reporter gene assay) (PPARγ) | inhibition at 10 µM (MDA-MB-231 cells [1]) [%] | MDA-MB-231 cell migration in words (MDA-MB-231 cells [2]) | decrease of MDA-MB-231 cell migration (MDA-MB-231 cells [2]; 40 μM, compared to control, scratch wound) [%]
1 | CCCCCCCCC=CCCCCCCCC(=O)OCC(O)CC(O)P(=O)([O-])O.[Na+] (mixture of isomers) [Compound 22a, reference compound] | NE (NE = no effect was shown at the highest concentration (30 μM) tested.) | – | – | –
2 | CCCCCCCCCCCCCCCC(=O)OC[C@@H](O)C[C@@H](Br)P(=O)(O)O [Compound 1a] | – | ~52 | inhibited the MDA-MB-231 cell migration | –
3 | CCCCCCCCCCCCCCCC(=O)OCC(O)CC(O)P(=O)([O-])O.[Na+] (mixture of isomers) [Compound 22b, reference compound] | NE (NE = no effect was shown at the highest concentration (30 μM) tested.) | – | – | –
4 | CCCCCCCCCCCCCCCC(=O)OC[C@@H](O)CCP(=O)([O-])O.[Na+] [Compound 20b, reference compound] | NE (NE = no effect was shown at the highest concentration (30 μM) tested.) | – | – | –
5 | CCCCCCCC/C=C\CCCCCCCC(=O)OCC(O)CCP(=O)(O)O (stereo not shown) [Compound 20a, reference compound] | NE (NE = no effect was shown at the highest concentration (30 μM) tested.) | – | – | –
6 | CCCCCCCCCCCCCCCC(=O)OC[C@@H](O)C[C@H](Br)P(=O)(O)O [Compound 1b] | – | ~52 | inhibited the MDA-MB-231 cell migration | 57
7 | CCCCCCCCCCCCCCCC(=O)OCC(O)COP(=O)(O)O (stereo not shown) [LPA (16:0), reference compound] | NE (NE = no effect was shown at the highest concentration (30 μM) tested.) | – | – | –
